# From patent US20190374518A1, “TREATMENT OF MIGRAINE” (Allergan Pharmaceuticals International Limited, priority 2018, published 2019)
# How the values were obtained:
# [1] = Study A: randomized, double-blind, placebo-controlled study, acute treatment of a single migraine attack; assay type: in vivo, human; details: for Absence of Most-Bothersome Migraine Associated Symptom at 2 hours after the initial dose: Odds Ratio (95% CI) / Pain Freedom at 2 hours after the initial dose: Odds Ratio (95% CI): mITT
# Experimental: (§1) Study A and Study B were multicenter, randomized, double-blind, placebo-controlled, parallel-group, studies designed to evaluate the efficacy, safety, and tolerability of three doses of ubrogepant (25 mg, 50 mg and 100 mg) compared to placebo for the acute treatment of a single migraine attack. In Study A, patients were randomized (1:1:1) to 1 of 3 treatment groups: placebo, ubrogepant 50 mg, or ubrogepant 100 mg. In Study B, patients were randomized (1:1:1) to 1 of 3 treatment groups: placebo, ubrogepant 25 mg, or ubrogepant 50 mg. Patients were stratified by their previous response to triptans (triptan responder, triptan insufficient responder, triptan naïve) and their current use of prophylactic concomitant medication for migraine (yes/no). To be randomized, eligible patients had to be 18 to 75 years of age (inclusive), have a history of migraine with or without aura for at least 1 year consistent with a diagnosis according to the International Classification of Headache Disorders criteria, 3rd edition, beta version, and had to have experienced between 2 to 8 migraine attacks with moderate to severe headache pain in each of the 3 months before Screening (Visit 1). Patients who had clinically significant hematologic, endocrine, cardiovascular, cerebrovascular, pulmonary, renal, hepatic, gastrointestinal, or neurologic disease were excluded from the study. Study patients randomized to a treatment group had up to 60 days to treat a single qualifying migraine attack of moderate or severe pain intensity at home. In Study A, a total of 1672 patients were randomized to double-blind treatment (ITT population), and 1436 patients took at least 1 dose of double-blind IP (safety population). A total of 1327 treated patients recorded a baseline migraine headache severity measurement and at least 1 postdose migraine headache severity or migraine-associated symptom measurement within 2 hours after dosing (mITT population). In Study B, a total of 1,686 patients were randomized to double-blind treatment (ITT population), and 1,465 patients took at least 1 dose of double-blind IP (safety population). A total of 1355 treated patients recorded a baseline migraine headache severity measurement and at least 1 postdose migraine headache severity or migraine-associated symptom measurement within 2 hours after dosing (mITT population). The coprimary efficacy endpoints for the United States were pain freedom (PF) at 2 hours after the initial dose, defined as a reduction in headache severity from moderate/severe at baseline to no pain, at 2 hours after the initial dose and absence of the most bothersome migraine-associated symptom at 2 hours after the initial dose. The most bothersome migraine-associated symptom was identified at baseline for each patient.
# [2] = Study B: randomized, double-blind, placebo-controlled study, acute treatment of a single migraine attack; assay type: in vivo, human; details: for Absence of Most-Bothersome Migraine Associated Symptom at 2 hours after the initial dose: Odds Ratio (95% CI) / Pain Freedom at 2 hours after the initial dose: Odds Ratio (95% CI): mITT
# Experimental: as §1
# [3] = 50 mg vs placebo, Triptan Insufficient Responder
# [4] = 50 mg vs placebo, Triptan Naïve
# [5] = 50 mg vs placebo, Triptan Responder
# [6] = 100 mg vs placebo, Triptan Insufficient Responder
# [7] = 100 mg vs placebo, Triptan Naïve
# [8] = 100 mg vs placebo, Triptan Responder
# [9] = 100 mg, Triptan Insufficient Responder, N1=126, mITT
# [10] = 100 mg, Triptan Naïve, N1=149, mITT
# [11] = 100 mg, Triptan Responder, N1=173, mITT
# [12] = 25 mg vs placebo, Triptan Insufficient Responder
# [13] = 25 mg vs placebo, Triptan Responder
# [14] = 25 mg, Triptan Insufficient Responder, N1=100, mITT
# [15] = 50 mg, Triptan Insufficient Responder, N1=110, mITT
# [16] = 50 mg, Triptan Responder, N1=160, mITT
smiles,measurement,setting,value
"C[C@@H]1[C@H](c2ccccc2)C[C@H](NC(=O)c2cnc3c(c2)C[C@@]2(C3)C(=O)Nc3ncccc32)C(=O)N1CC(F)(F)F [Ubrogepant, ubrogepant]",Absence of Most-Bothersome Migraine Associated Symptom at 2 hours after the initial dose: Odds Ratio (95% CI),[1]; [3],1.80
same,Pain Freedom at 2 hours after the initial dose: Odds Ratio (95% CI),[1]; [3],2.41
same,Absence of Most-Bothersome Migraine Associated Symptom at 2 hours after the initial dose: Odds Ratio (95% CI),[1]; [4],1.48
same,Pain Freedom at 2 hours after the initial dose: Odds Ratio (95% CI),[1]; [4],1.60
same,Absence of Most-Bothersome Migraine Associated Symptom at 2 hours after the initial dose: Odds Ratio (95% CI),[1]; [5],1.85
same,Pain Freedom at 2 hours after the initial dose: Odds Ratio (95% CI),[1]; [5],1.86
same,Absence of Most-Bothersome Migraine Associated Symptom at 2 hours after the initial dose: Responder rate (in parentheses),"[1]; 50 mg, Triptan Insufficient Responder, N1=116, mITT",(33.6)
same,Pain Freedom at 2 hours after the initial dose: Responder rate (in parentheses),"[1]; 50 mg, Triptan Insufficient Responder, N1=118, mITT",(13.6)
same,Absence of Most-Bothersome Migraine Associated Symptom at 2 hours after the initial dose: Responder rate (in parentheses),"[1]; 50 mg, Triptan Naïve, N1=132, mITT",(42.4)
same,Pain Freedom at 2 hours after the initial dose: Responder rate (in parentheses),"[1]; 50 mg, Triptan Naïve, N1=133, mITT",(24.8)
same,Pain Freedom at 2 hours after the initial dose: Responder rate (in parentheses),"[1]; 50 mg, Triptan Responder, N1=171, mITT",(18.7)
same,Absence of Most-Bothersome Migraine Associated Symptom at 2 hours after the initial dose: Responder rate (in parentheses),"[1]; 50 mg, Triptan Responder, N1=172, mITT",(39.0)
same,Absence of Most-Bothersome Migraine Associated Symptom at 2 hours after the initial dose: Odds Ratio (95% CI),[1]; [6],1.50
same,Pain Freedom at 2 hours after the initial dose: Odds Ratio (95% CI),[1]; [6],2.49
same,Absence of Most-Bothersome Migraine Associated Symptom at 2 hours after the initial dose: Odds Ratio (95% CI),[1]; [7],1.22
same,Pain Freedom at 2 hours after the initial dose: Odds Ratio (95% CI),[1]; [7],1.26
same,Absence of Most-Bothersome Migraine Associated Symptom at 2 hours after the initial dose: Odds Ratio (95% CI),[1]; [8],2.18
same,Pain Freedom at 2 hours after the initial dose: Odds Ratio (95% CI),[1]; [8],2.89
same,Absence of Most-Bothersome Migraine Associated Symptom at 2 hours after the initial dose: Responder rate (in parentheses),[1]; [9],(30.2)
same,Pain Freedom at 2 hours after the initial dose: Responder rate (in parentheses),[1]; [9],(14.3)
same,Absence of Most-Bothersome Migraine Associated Symptom at 2 hours after the initial dose: Responder rate (in parentheses),[1]; [10],(37.6)
same,Pain Freedom at 2 hours after the initial dose: Responder rate (in parentheses),[1]; [10],(20.8)
same,Absence of Most-Bothersome Migraine Associated Symptom at 2 hours after the initial dose: Responder rate (in parentheses),[1]; [11],(43.4)
same,Pain Freedom at 2 hours after the initial dose: Responder rate (in parentheses),[1]; [11],(26.6)
same,Absence of Most-Bothersome Migraine Associated Symptom at 2 hours after the initial dose: Odds Ratio (95% CI),[2]; [12],1.65
same,Pain Freedom at 2 hours after the initial dose: Odds Ratio (95% CI),[2]; [12],1.81
same,Absence of Most-Bothersome Migraine Associated Symptom at 2 hours after the initial dose: Odds Ratio (95% CI),"[2]; 25 mg vs placebo, Triptan Naive",1.32
same,Pain Freedom at 2 hours after the initial dose: Odds Ratio (95% CI),"[2]; 25 mg vs placebo, Triptan Naïve",1.50
same,Absence of Most-Bothersome Migraine Associated Symptom at 2 hours after the initial dose: Odds Ratio (95% CI),[2]; [13],1.26
same,Pain Freedom at 2 hours after the initial dose: Odds Ratio (95% CI),[2]; [13],1.52
same,Absence of Most-Bothersome Migraine Associated Symptom at 2 hours after the initial dose: Responder rate (in parentheses),[2]; [14],(37.0)
same,Pain Freedom at 2 hours after the initial dose: Responder rate (in parentheses),[2]; [14],(18.0)
same,Absence of Most-Bothersome Migraine Associated Symptom at 2 hours after the initial dose: Responder rate (in parentheses),"[2]; 25 mg, Triptan Naive, N1=184, mITT",(34.2)
same,Pain Freedom at 2 hours after the initial dose: Responder rate (in parentheses),"[2]; 25 mg, Triptan Naïve, N1=184, mITT",(25.5)
same,Absence of Most-Bothersome Migraine Associated Symptom at 2 hours after the initial dose: Responder rate (in parentheses),"[2]; 25 mg, Triptan Responder, N1=150, mITT",(32.0)
same,Pain Freedom at 2 hours after the initial dose: Responder rate (in parentheses),"[2]; 25 mg, Triptan Responder, N1=151, mITT",(16.6)
same,Absence of Most-Bothersome Migraine Associated Symptom at 2 hours after the initial dose: Odds Ratio (95% CI),[2]; [3],1.72
same,Pain Freedom at 2 hours after the initial dose: Odds Ratio (95% CI),[2]; [3],1.97
same,Absence of Most-Bothersome Migraine Associated Symptom at 2 hours after the initial dose: Odds Ratio (95% CI),"[2]; 50 mg vs placebo, Triptan Naive",1.54
same,Pain Freedom at 2 hours after the initial dose: Odds Ratio (95% CI),[2]; [4],1.22
same,Absence of Most-Bothersome Migraine Associated Symptom at 2 hours after the initial dose: Odds Ratio (95% CI),[2]; [5],1.76
same,Pain Freedom at 2 hours after the initial dose: Odds Ratio (95% CI),[2]; [5],2.19
same,Absence of Most-Bothersome Migraine Associated Symptom at 2 hours after the initial dose: Responder rate (in parentheses),[2]; [15],(38.2)
same,Pain Freedom at 2 hours after the initial dose: Responder rate (in parentheses),[2]; [15],(19.1)
same,Absence of Most-Bothersome Migraine Associated Symptom at 2 hours after the initial dose: Responder rate (in parentheses),"[2]; 50 mg, Triptan Naive, N1=193, mITT",(39.4)
same,Pain Freedom at 2 hours after the initial dose: Responder rate (in parentheses),"[2]; 50 mg, Triptan Naïve, N1=194, mITT",(23.2)
same,Absence of Most-Bothersome Migraine Associated Symptom at 2 hours after the initial dose: Responder rate (in parentheses),[2]; [16],(38.8)
same,Pain Freedom at 2 hours after the initial dose: Responder rate (in parentheses),[2]; [16],(21.9)
